From patent US7354926B2, “Molecules derived from noraporphine” (Sederma SAS, priority 2002, dated 2008)

Key:
[1] = test system: normal human melanocytes (MHN); assay: Inhibition of melanin synthesis (in vitro) in culture of normal human melanocytes; format: cell-based; conditions: 7 days of exposure, various concentrations, vs control cells, normalized on protein content
Protocol: The efficacy of the products on melanization was tested in culture of normal human melanocytes (MHN). This culture medium is conventionally used to test variations in melanin levels. The cells are incubated in the presence of the test product for 7 days while the control cells are incubated in the culture medium alone.
After 7 days, the total melanin (phaeomelanin and eumelanin) present in the cells is determined after cell lysis and dissolution in sodium hydroxide, the assay is colorimetric.
The melanin level produced under exposure to the test product at various concentrations are compared to those obtained with the control cells. The data are normalized on the protein content of the sample.
The inhibition of synthesis observed after 7 days of exposure to those products is dependent on the test concentration. Inhibition varies from −28 to −51%.

[2] = test system: G-3-PDH (Glycerol-3-Phosphate deshydrogenase) activity in fibroblasts 3T3 L1 / pre-adipocytes; assay: Inhibition of lipogenesis (in vitro): G-3-PDH activity in differentiating 3T3 L1 pre-adipocytes; format: cell-based; conditions: for ACTIVITY G-3-PDH/10^−6 cells (inhibition in % of the witness): average of 3 independent tests
Protocol: The following test is based on the fact that a cocktail from substances (hormonal messengers) induce the fibroblasts 3T3 L1 differentiation, in culture, into pre-adipocytes then in adipocytes charged with lipids.
The culture proceeds in three stages: cellular multiplication until confluence, addition of cocktail of differentiation (stage during which the initial pre-adipocytes are obtained (72 hours), then active differentiation with lipogenesis stimulation (approximately 72 hours) at the end of which apparent storage in lipidic droplets is then definitely visible under microscope.
The enzyme G-3-PDH (Glycerol-3-Phosphate deshydrogenase), essential to triglyceride synthesis is expressed very strongly during this active stage of lipidic storage.
The product to be tested is added at the second step.
After the incubation period the G-3-PDH activity is compared between the pre-adipocytes witnesses and those incubated in the presence of the tested product. Under these conditions, a product which inhibits the lipogenesis causes a fall of the G-3-PDH activity.
After the induced differentiation, the solution to test is added to the culture of pre-adipocytes, here a 2,9-diacetyloxy-1,10-dimethoxy-6-methyl-noraporphine solution (compound II). In parallel, two witness cultures, one in negative and the other in positive are carried out.
At the end of the incubation, the cells are taken and lysed and the test is carried out on the intracellular contents.
The G-3-PDH activity is measured by NADH disappearance (λ=340 nm).
The enzymatic activity values are standardized with the number of cells.

[3] = Inhibition of peroxidation induced on liposomes by UVA; conditions: for Inhibition perox. UVA: UVA 10 J/cm^2, 45° C., 24 hours, combined dienes
Protocol: (§1) In order to seek an antioxidant activity, we evaluated 2,9-diacetyloxy-1,10-dimethoxy-6-methyl-noraporphine (compound II) effect on the inhibition of peroxidation induced on liposomes by UVA or pair HO2/FeCl2.
(§2) The liposomes, once manufactured, receive the products to be tested in solution. Then they are put under UVA lamp and are irradiated to 10 J/cm^2. The liposomes are incubated at 45° C. After 24 hours, the lipidic peroxidation is quantified by estimating the rate of combined dienes markers. The effect of the product is compared with negative control.

[4] = Inhibition of peroxidation induced on liposomes by HO2/FeCl2 (Fenton reaction); conditions: 0.06 mmol/l; similar protocol with HO2/FeCl2 added to the liposomes
Protocol: as §1, §2
A strong inhibition (−60% with 0.06 mmol/l) is also obtained in a similar protocol when HO2/FeCl2. is added (Fenton reaction) to the solution of liposomes.

Which results are given for `COc1cc2c(cc1OC(C)=O)CC1c3c(cc(OC(C)=O)c(OC)c3-2)CCN1C` (centres unmarked) [compound II, 2,9-diacetyloxy-1,10-dimethoxy-6-methyl-noraporphine]?
Inhibition of melanin synthesis [1]: −28 to −51%; ACTIVITY G-3-PDH/10^−6 cells (inhibition in % of the witness) ([2]; 0.03 mmol/l): −49%; ACTIVITY G-3-PDH/10^−6 cells (inhibition in % of the witness) ([2]; 0.06 mmol/l): −67%; Morphology of the preadipocytes under microscope ([2]; compared to witness cells): few lipidic inclusions; Inhibition perox. UVA ([3]; 0.03 mmol/l): −93%; Inhibition perox. UVA ([3]; 0.06 mmol/l): −87%; Inhibition perox. UVA ([3]; 0.09 mmol/l): −89%; Inhibition perox. UVA ([3]; 0.15 mmol/l): ≈−100%; Inhibition perox. UVA ([3]; 0.30 mmol/l): ≈−100%; Inhibition of lipidic peroxidation UVA induced (in words) ([3]; with the tested concentrations (0.03-0.30 mmol/l)): almost completely inhibits; Inhibition of peroxidation, HO2/FeCl2 (Fenton reaction) [4]: −60%
